Source: patent US20160290995A1, “METHODS OF SELECTING AKT AGONISTS OR ANTAGONISTS” (OREGON HEALTH & SCIENCE UNIVERSITY, priority 2015, published 2016)
Like-named read-outs stand apart in the source and are kept apart here.

Legend:
[1] = system: Akt; assay: FOXO1-clover reporter live-cell imaging (relative nuclear intensity) in C3H10T1/2 fibroblasts; format: cell-based, mouse; conditions: for effect of inhibitor on IGF-I-mediated reporter localization: 90 min, graded inhibitor concentrations; for IC50: Mus musculus, C3H 10T1/2; for mean rate of nuclear import of FOXO1-clover: after R3-IGF-I 250 pM; for change of nuclear levels of the reporter on growth factor addition (result in words): different concentrations; for change of nuclear levels of the reporter on growth factor addition (result in words) / time to half-maximal translocation/accumulation of reporter in the cytoplasm after onset of incubation / time to maximal translocation values: cells pre-incubated in SFM; for time to half-maximal translocation/accumulation of reporter in the cytoplasm after onset of incubation / time to maximal translocation values: different growth factor concentrations
Description: (§1) Cells were imaged every 2-min for 60 min. At the end of the incubation period whole cell lysates were collected.
10T1/2 cells and C2 myoblasts were incubated in serum-free medium for 90 min. R3-IGF-I was added in supplemented FluoroBrite [0 to 500 pM], and cells were imaged every 2-min for 60 min. […]
(§2) Live cell imaging was performed using an EVOS FL Auto microscope with a stage top incubator that was maintained at 37° C. and 95% humidified air with 5% CO2. Images were collected at 100× magnification at different intervals, using a 10× Fluorite objective (numerical aperture: 0.3), and a GFP light cube (excitation peak, 472/22 nm; emission peak, 510/42 nm). Images were analyzed with the NIH ImageJ plug-in Fiji (NIH, Bethesda, Md.), after using the Polynomial Fit plug-in to subtract background fluorescence, the Stack Reg (rigid registration) plug-in to register images, and the Gaussian Blur plug-in (at 2-pixels) to average fluorescence across pixels. Individual cells were manually tracked using the mTrackJ plug-in (Meijering E et al, Methods Enzymol 504, 183-200 (2012); incorporated by reference herein) by selecting a single point in the nucleus. Cells that died, divided, or migrated out of frame were excluded from analysis. In experiments performed in 6-well dishes, two locations on opposite sides of the well were imaged, while for studies using 24-well plates, one central location was imaged. In each location, at least 25 cells were tracked.

[2] = system: Akt phosphorylation; assay: Immunoblotting of Akt and PRAS40 phosphorylation in 10T1/2 whole cell lysates; format: cell-based, mouse; conditions: for time course of Akt and PRAS40 phosphorylation (result in words): insulin 1400 pM, EGF 4.2 nM, PDGF-AA 1400 pM, PDGF-BB 104 pM, up to 90 min
Description: as §1
Whole cell protein lysates were prepared as described (Mukherjee A and Rotwein P, Mol Endorcrinol 22, 1238-1250 (2008); incorporated by reference herein). Protein aliquots (15 μg/lane) were resolved by SDS-PAGE (12% separating gel), followed by transfer to Immobilon-FL membranes, and blocking with 50% AquaBlock solution. Membranes were incubated sequentially with primary and secondary antibodies, as described (Mukherjee and Rotwein, 2008 supra). Primary antibodies were incubated for 12-16 hr at a 1:1000 dilution, except for α-tubulin (1:10,000), and secondary antibodies for 90 min at 1:5000. Images were captured using the LiCoR Odyssey and version 3.0 analysis software (Lincoln, Nebr.).
C3H10T1/2 cells stably expressing FoxO1-clover were incubated in SFM with Fluorobrite imaging media for 90 min followed by addition of insulin [1400 pM], EGF [4.2 nM], PDGF-AA [1400 pM], or PDGF BB [104 pM]. Whole protein lysates were collected after 0, 5, 15, 30, 60, and 90 min of growth factor exposure by washing cells twice with cold PBS and addition of RIPA buffer containing protease and phosphatase inhibitors (Mukherjee A and Rotwein P, Mol Endocrinol 22, 1238-1250 (2008); incorporated by reference herein). Protein aliquots (12.5 μg/lane) were resolved by SDS PAGE (10% separating gels), and transferred onto Immobilon-FL membranes. Membranes were incubated in 50% AquaBlock for 60 min, followed by addition of primary antibodies at 1:1000 dilution for 16 hr, and secondary antibodies for 90 min at 1:5000. Images were collected using the LiCoR Odyssey and analysis software version 3.0 (Lincoln, Nebr.).

[3] = system: Akt; assay: FoxO1-clover reporter live-cell imaging in HeLa cells; format: cell-based; conditions: IGF-I 500 pM, insulin 1400 pM, EGF 4.2 nM, PDGF-BB 4.1 nM, PDGF-AA 3.5 nM; 90 min
Description: HeLa cells (ATCC #CCL2) were incubated in DMEM supplemented with 10% FBS. Cells were transduced at 50% of confluent density with concentrated FoxO1-clover virus in the presence of polybrene (6 μg/ml), as described (Gross S M and Rotwein P, Skelet Muscle 3, doi10.1186/2044-5040-3-10 (2013); incorporated by reference herein), and sorted by fluorescence intensity with a Becton-Dickinson Influx cell sorter. Reporter expression was stable for at least 10 passages in each sorted cell population. C3H10T1/2 mouse embryonic fibroblasts (ATC #CCL226) stably expressing FoxO1-clover (Gross and Rotwein, 2015), were maintained under selection with puromycin (2 μg/ml).
as §2, with “tracked. The relative nuclear intensity of the FoxO1-clover reporter protein was calculated in each cell by normalizing the values measured at time 0 to 100%. This corresponded to incubation in serum-free medium (SFM). In graphs in which single cell responses were plotted with C3H10T1/2 cells, we applied a time-weighted smoothing filter to each data point. This consisted of averaging contributions from the two prior and two succeeding times (adding 50% of the prior or succeeding time point, and 25% of the next succeeding or earlier time point to 100% of the value of the time point in question, and then dividing by 2.5).” for “tracked.”
Short-term responses to individual growth factors: C3H10T1/2 cells were incubated in serum-free Fluorobrite medium plus 2 mM L-glutamine and 0.1% bovine serum albumin for 90 min. Different concentrations of growth factors were added and images were collected every 2 min for 90 min. Growth factors included insulin [0 to 1400 pM], EGF [0 to 4.2 nM], PDGF-AA [0 to 1400 pM], or PDGF-BB [0 to 104 pM]. HeLa cells were incubated in serum-free Fluorobrite medium for 120 min and then incubated with insulin [1400 pM], EGF [4.2 nM], PDGF-AA [3.5 nM], PDGF-BB [4.1 nM], or R3-486 IGF-I [500 pM], with images collected every 2 min.

[4] = two highest concentrations of PDGF-AA
[5] = higher concentrations of PDGF-BB
[6] = lower growth factor concentrations

C[C@]1(O)C[C@@H](c2nc(-c3ccc4ccc(-c5ccccc5)nc4c3)c3c(N)nccn32)C1 [Linsitinib, reference compound]
effect of inhibitor on IGF-I-mediated reporter localization ([1]; IGF-I 500 pM): dose-dependent decline in maximal IGF-I-mediated cytoplasmic localization of the FoxO1-clover reporter molecule

Oc1cccc(-c2nc(N3CCOCC3)c3oc4ncccc4c3n2)c1 [PI103, reference compound]
fraction of reporter in the nucleus ([1]; 60 min after PI103 500 nM, following 60 min IGF-I 250 pM, scaled 0% = IGF-I, 100% = leptomycin): ~56%
effect of inhibitor on IGF-I-mediated reporter localization ([1]; IGF-I 500 pM): dose-dependent decline in maximal IGF-I-mediated cytoplasmic localization of the FoxO1-clover reporter molecule
enhancement of mean rate of nuclear import by inhibition of PI3-kinase ([1]; Lepto plus PI103 vs Lepto alone): up to 4 fold
IC50 ([1]; IGF-I 500 pM, read-out: IC50 for IGF-I-mediated signaling): 50 to 200 nM
IC50 ([1]; PDGF-BB 830 pM, read-out: IC50 for PDGF-BB-mediated signaling): 20 to 50 nM
increase in nuclear localization of the reporter compared with serum-free medium alone ([1]; PI103 500 nM added to cells in SFM): ~10%
time after addition of PI103 at which N/C=1 ([1]; PI103 500 nM after IGF-I 250 pM): ~15 min
mean rate of nuclear import of FOXO1-clover ([1]; leptomycin B 100 nM plus PI103 500 nM): > 12 % per min

CCC(=C/[C@H](C)C/C=C/C(C)=C/[C@@H](C)C(=O)[C@@H](C)[C@H](O)[C@@H](C)C/C(C)=C/C(=O)O)/C=C/[C@@H]1OC(=O)C=C[C@@H]1C [leptomycin B, reference compound]
half-maximal time of nuclear appearance of reporter after leptomycin B ([1]; leptomycin B 100 nM after 60 min IGF-I 25 pM): ~5 min
half-maximal time of nuclear appearance of reporter after leptomycin B ([1]; leptomycin B 100 nM after 60 min IGF-I 250 pM): ~25 min
change of nuclear intensity of the reporter after subsequent leptomycin ([1]; leptomycin B 100 nM after PI103 in SFM): nearly a doubling
mean rate of nuclear import of FOXO1-clover ([1]; leptomycin B 100 nM alone, single exponential fit of individual cells): ~3 % per min

EGF: mouse EGF (Gibco-Life Technologies), peptide growth factor (NSYPGCPSSYDGYCLNGGVCMHIESLDSYTCNCVIGYSGDRCQTRDLRWWELR; Epidermal growth factor; UniProt P01132 977-1029, looked up)
change of nuclear levels of the reporter on growth factor addition (result in words) ([1]; population level): rapid, dose-dependent, and transient decreases in nuclear levels of the FoxO1-clover reporter protein
time by which signal intensity was waning ([1]; population level, after EGF treatment): 45 min
time to half-maximal translocation/accumulation of reporter in the cytoplasm after onset of incubation ([1]; population level): 6 to 9 min
time to maximal translocation values ([1]; population level): ~13 min
response to a second treatment with the same growth factor ([1]; sequential exposures, IGF-I 50 or 500 pM with 90-min washout, EGF 4.2 nM after 60 min EGF): minimally promoted FoxO1-clover reporter translocation out of the nucleus
time course of Akt and PRAS40 phosphorylation (result in words) [2]: Similarly transient effects
signaling response in HeLa FoxO1-clover cells (result in words) [3]: transient responses

PDGF-AA: recombinant human PDGF-AA (Thermo Scientific); binds almost exclusively to the PDGF-α receptor
change of nuclear levels of the reporter on growth factor addition (result in words) ([1]; population level): rapid, dose-dependent decreases in nuclear levels of FoxO1-clover
decline of population response from peak values ([1]; over the next 40 min after the peak): 50-75%
time to half-maximal translocation/accumulation of reporter in the cytoplasm after onset of incubation ([1]; population level): 6 to 10 min
time to maximal translocation values ([1]; population level): ~14 min
fraction of cells demonstrating sustained effects [1, 4]: 10-15%
fraction of cells showing no or minimal responses [1, 4]: 25-30%
time course of Akt and PRAS40 phosphorylation (result in words) [2]: Similarly brief effects
signaling response in HeLa FoxO1-clover cells (result in words) [3]: ineffective

PDGF-BB: recombinant human PDGF-BB (Invitrogen); binds PDGF-α and PDGF-β receptors
duration of maintained cytoplasmic localization of the reporter [1, 5]: at least 90 min
time to half-maximal accumulation of FoxO1-clover in the cytoplasm [1, 5]: < 5 min
time to half-maximal accumulation of FoxO1-clover in the cytoplasm [1, 6]: 8 to 9 min
time to maximal values [1, 6]: ~14 min
fraction of cells showing large and sustained signaling responses ([1]; peak concentrations of PDGF-BB): 90-99%
subcellular localization of FOXO1-clover (result in words) ([1]; serum-starved cells, 60 min, 10% FBS, PDGF-BB 206 pM, R3-IGF-I 1 nM, BMP-2 15 nM): rapid and sustained translocation of the reporter from the nucleus to the cytoplasm
Akt phosphorylation (pAkt T308 immunoblot) ([2]; 60 min, 10% FBS, PDGF-BB 206 pM, R3-IGF-I 1 nM, BMP-2 15 nM): stimulation of Akt phosphorylation
time course of Akt and PRAS40 phosphorylation (result in words) [2]: Similarly sustained signaling
signaling response in HeLa FoxO1-clover cells (result in words) [3]: transient responses
